How the values were obtained:
[1] = target: T1, Type-2 angiotensin II receptor (Rattus norvegicus, UniProt P35351); experiment: Inhibition of [125I]-Sar1-Ile8-Ang II binding to rat midbrain Angiotensin II receptor type 2
T1 sequence (P35351 whole entry): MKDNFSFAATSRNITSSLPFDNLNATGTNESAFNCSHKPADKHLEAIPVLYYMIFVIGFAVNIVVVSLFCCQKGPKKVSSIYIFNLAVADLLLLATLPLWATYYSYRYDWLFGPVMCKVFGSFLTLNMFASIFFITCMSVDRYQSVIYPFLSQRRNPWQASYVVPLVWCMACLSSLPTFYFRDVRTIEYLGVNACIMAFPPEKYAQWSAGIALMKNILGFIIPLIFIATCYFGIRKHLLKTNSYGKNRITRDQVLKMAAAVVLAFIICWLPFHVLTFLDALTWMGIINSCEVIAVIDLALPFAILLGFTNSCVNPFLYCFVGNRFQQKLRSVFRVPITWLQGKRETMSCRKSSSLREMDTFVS

[2] = target: T2, Type-1 angiotensin II receptor (Oryctolagus cuniculus, UniProt P34976); experiment: Inhibition of [125I]-Sar1-Ile8-Ang II binding to Angiotensin II receptor type 1 from rabbit aorta
T2 sequence (P34976 whole entry): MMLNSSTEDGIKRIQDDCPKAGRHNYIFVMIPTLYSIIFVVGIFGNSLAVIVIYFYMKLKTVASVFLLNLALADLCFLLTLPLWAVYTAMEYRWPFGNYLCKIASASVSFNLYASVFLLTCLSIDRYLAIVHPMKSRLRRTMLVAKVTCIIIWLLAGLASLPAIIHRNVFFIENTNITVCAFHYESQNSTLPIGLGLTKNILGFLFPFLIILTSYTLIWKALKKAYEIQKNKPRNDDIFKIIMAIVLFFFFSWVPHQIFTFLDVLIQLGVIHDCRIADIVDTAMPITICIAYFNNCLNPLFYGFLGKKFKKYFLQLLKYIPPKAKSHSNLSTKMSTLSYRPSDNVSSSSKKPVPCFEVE

SMILES	IC50 [1]	IC50 [2]
CCCc1nc2ccc(NC(=O)NC(C)C)cc2c(=O)n1Cc1ccc(-c2ccccc2S(=O)(=O)NC(C)=O)cc1	630 nM	8.8 nM
CCCc1nc2ccc3cc2c(=O)n1Cc1ccc(cc1)-c1ccccc1S(=O)(=O)NC(=O)CCCCCCCN3	200 nM	0.3 nM
CCCc1nc2ccc(NC(=O)c3ccccc3)cc2c(=O)n1Cc1ccc(-c2ccccc2-c2nnn[nH]2)cc1	3000 nM	0.4 nM
CCCc1nc2ccc3cc2c(=O)n1Cc1ccc(cc1)-c1ccccc1S(=O)(=O)NC(=O)CCCCCCCN3C(=O)c1ccccc1	49 nM	1.3 nM
CCCc1nc2ccc3cc2c(=O)n1Cc1ccc(cc1)-c1ccccc1S(=O)(=O)NC(=O)CCCCCCCN3C(=O)OCc1ccccc1	75 nM	1.5 nM
CCCCCN(C(=O)c1ccccc1)c1ccc2nc(CCC)n(Cc3ccc(-c4ccccc4S(=O)(=O)NC(=O)c4ccccc4)cc3)c(=O)c2c1	350 nM	11 nM
CCCc1nc2ccc3cc2c(=O)n1Cc1ccc(cc1)-c1ccccc1S(=O)(=O)NC(=O)CCCCCN3C(=O)OCc1ccccc1	4000 nM	23 nM

Stronger by IC50 [1], values ahead:

IC50 [1]	IC50 [2]	SMILES
24 nM	3.9 nM	CCCc1ccc2c(c1)-c1ccc(cc1)Cn1c(CCC)nc3ccc(cc3c1=O)NCCCCCCCC(=O)NS2(=O)=O
20 nM	30 nM	CCCc1ccc2c(c1)-c1ccc(cc1)Cn1c(CCC)nc3ccc(cc3c1=O)N(C(=O)OCc1ccccc1)CCCCCCCC(=O)NS2(=O)=O
18 nM	0.9 nM	CCCc1nc2ccc(NC(=O)NC(C)C)cc2c(=O)n1Cc1ccc(-c2ccccc2S(=O)(=O)NC(=O)c2ccccc2)cc1
